Source: US5912351A, “Anhydrous 1,4-Dihydropyridines and salts thereof” (Recordati, S.A. Chemical and Pharmaceutical Company, priority 1995, dated 1999)

Key:
[1] = test system: LDL, isolated from human plasma; assay: Chemical (Cu++) oxidation of LDL, conjugated diene formation at 234 nm; format: biochemical; set-up: Lag time of LDL oxidation: unit not given here
Procedure: The ability of Lercanidipine to function as an antioxidant was evaluated by incubating LDL, isolated from human plasma, for 22 hours with an oxidizing agent (20 μM Cu++) in the presence of different concentrations of the test compounds (0.01 μM-50 μM). The LDL oxidation was followed by monitoring conjugated diene formation with a ultraviolet (UV) spectrometer at 234 nm.
The experimental conditions were as follows. LDL (d=1.019-1.063) were isolated from human pooled plasma by sequential ultracentrifugation at 4° C. and 40,000 rpm in a 50 Ti rotor, using a L5-50 ultracentrifuge (Beckman, Palo Alto, Calif.). The LDL were then dialyzed against 0.15 M NaCl containing 0.01% ethylenediaminetetraacetic acid pH 7.4, sterilized by filtration through a […] millipore filter and stored at 4° C. under nitrogen in the dark until use (up to 3 weeks). Before use, LDL were dialyzed against ethylenediaminetetraacetic acid free phosphate buffered saline, pH 7.4, on Sephadex G-25 columns (PD-10, Pharmacia Fine Chemicals, Uppsala, Sweden). Then the LDL were filtered through a sterile 0.22 μM filter. In a phosphate buffered saline (50 μg lipoprotein protein/ml), the LDL were oxidized by incubation at 25° C. with 20 μM CuSO4 for 3 hours. The lercanidipine solution was prepared as a 10^-2 M stock solution in methanol or ethanol and added as a methanol or ethanol solution (maximum 1% v/v) prior to addition of the copper solution. The effect of lercanidipine on the oxidation of LDL was determined by continuous monitoring of the formation of conjugated dienes by recording the increase in the absorbance at 234 nm at 5 min intervals during a three hour period, against a phosphate buffered saline blank, using a UV spectrophotometer (Beckman DU 640) equipped with a continuous reading and an automatic 6-cell changer. The time prior to the onset of oxidation (lag time) was calculated as the intercept between the line of the maximum slope of the propagation phase and the x-axis.

EAhy-926 = assay: Cell-mediated oxidation of LDL (MDA), EAhy-926 cells; format: cell-based; settings: 10 to 100 μM, 22 hours, FIG. 6
Procedure: (§1) The antioxidant capacity was evaluated by incubating ethylene-diaminetetraacetic acid free-LDL under sterile conditions with 5 μM Cu++ (100 μg Apo B/ml) in the presence of J774A.1 cells. Oxidation was stopped after 22 hours incubation by addition of butylated hydroxytoluene to the medium (final concentration 40 μM) dissolved in ethanol. To the incubated sample (0.250 ml), was added trichloroacetic acid (0.750 ml, 0.20% w/v) followed by of thiobarbituric acid (0.750 ml, 0.67% w/v). The samples were heated at 100° C. for 20 min, followed by cooling and centrifugation. Malonic dialdehyde equivalents were calculated using 1,1,3,3-tetramethoxypropane as the standard.
Following the procedure in Example 9A, the effects of lercanidipine on cell-mediated oxidation were studied with a different cell line which shares many of the properties of endothelial cells (EAhy-926). (The cells were provided by: Prof. A. Catapano, Pharmacology Dept., Universita Statale--Milano.) (These or other endothelial cells can be obtained as described by C-J. S. Edgall et al., Proc. Nat. AcAd. Sci., 80: 3734-3737, (1983); and Gimbrone, M., Prog. Hemostasis Thromb., 3: 1-28, (1976)). The cells were treated with lercanidipine at a concentration of from about 10 to about 100 μM.

[2] = test system: mouse monocyte-macrophage cells (ATCC TIB 67 J774A.1); assay: Cell-mediated oxidation of LDL (MDA, thiobarbituric acid assay), J774A.1 cells; format: cell-based; settings: 30 μM, after 10 hours incubation, FIG. 7
Procedure: The antioxidant capacity of the compounds of the invention, on cell-mediated oxidation, was evaluated by incubating LDL and mouse monocyte-macrophage cells (ATCC TIB 67 J774A.1) with CuSO4 solution in the presence of […], lercanidipine or one of its enantiomers at several concentrations. The inhibition of formation of aldehydic breakdown products, i.e., secondary metabolites of lipid peroxidation, malonic dialdehyde (MDA), was assessed by detection of dialdehyde formation using the thiobarbituric acid assay (A. N. Hanna et al., Biochem. Pharmacol. 45: 753 (1993)).
as §1, with “To the incubated sample (0.250 ml), was added trichloroacetic acid (0.750 ml, 0.20% w/v) followed by of thiobarbituric acid (0.750 ml, 0.67% w/v). The samples were heated at 100° C. for 20 min, followed by cooling and centrifugation.” left out
In experiments 9A and 9B, the cell-mediated oxidation effects of lercanidipine were investigated after incubation for 22 hours. […] Samples were withdrawn from the incubation medium and the oxidation product, MDA, measured as described above.

Q: How did the “Lag time of LDL oxidation” value ([1]; 0.5 μM, 20 μM Cu++) turn out when COC(=O)C1=C(C)NC(C)=C(C(=O)OC(C)(C)CN(C)CCC(c2ccccc2)c2ccccc2)C1c1cccc([N+](=O)[O-])c1 (racemic) [LE, methyl 1,1,N-trimethyl-N-(3,3-diphenylpropyl)-2-aminoethyl 1,4-dihydro-2,6-dimethyl-4-(3-nitrophenyl)-pyridine-3,5-dicarboxylate] was run?
A: 45.2 ± 3.7

Q: And the “Lag time of LDL oxidation” value ([1]; 1.0 μM, 20 μM Cu++)?
A: 49.8 ± 4.7

Q: What about the “Lag time of LDL oxidation” value ([1]; 2.5 μM, 20 μM Cu++, P < 0.05) of the same molecule?
A: 53.6 ± 3.3

Q: What about the “Lag time of LDL oxidation” value ([1]; 5.0 μM, 20 μM Cu++, P < 0.01) of the same molecule?
A: 73.2 ± 4.8

Q: What about the “increase of the lag time for LDL oxidation” value ([1]; 10 μM) of the same molecule?
A: more than 2 times

Q: And the “Lag time of LDL oxidation” value ([1]; 10.0 μM, 20 μM Cu++, P < 0.01)?
A: 112.7 ± 5.2

Q: What about the “concentrations significantly suppressing the onset of LDL oxidation” value ([1]; 20 μM Cu++) of the same molecule?
A: greater than or equal to 2.5 μM

Q: What about the “potency relative to lacidipine (LDL oxidation)” value ([1]; assays herein) of the same molecule?
A: one order of magnitude higher

Q: What about the “LDL oxidation (nanomoles of MDA produced)” value (EAhy-926) of the same molecule?
A: reduced the oxidation of LDL

Q: What about the “inhibition of lipid oxidation (MDA) over time” value [2] of the same molecule?
A: very high inhibition of lipid oxidation
